Data published in patent US11718626B2, “Macrocyclic compounds for treatment of medical disorders” (Achillion Pharmaceuticals, Inc., priority 2017, dated 2023).

target: Human Factor D (purified from human serum) (Homo sapiens (Human), UniProt P00746); assay: Human Factor D Assay; assay type: biochemical; conditions: Human Factor D 80 nM, substrate Z-L-Lys-SBzl, assay of Example 2; read-out: IC50 (Stars)
Protocol: The assay of Example 2 was used to determine the IC50's of the compounds. Other standard Factor D inhibition assays are also available.
Human Factor D (purified from human serum, Complement Technology, Inc.) at 80 nM final concentration is incubated with test compound at various concentrations for 5 min at room temperature in 50 mM Tris, 1M NaCl, pH 7.5. A synthetic substrate Z-L-Lys-SBzl and DTNB (Ellman's reagent) are added to final concentrations of 100 μM each. Absorbance at 405 nm (A405) is recorded at 30 second intervals for 30 minutes using a microplate spectrophotometer. IC50 values are calculated by nonlinear regression of Complement Factor D reaction rates as a function of test compound concentration.

Chain of Human Factor D (purified from human serum) (P00746 26-253): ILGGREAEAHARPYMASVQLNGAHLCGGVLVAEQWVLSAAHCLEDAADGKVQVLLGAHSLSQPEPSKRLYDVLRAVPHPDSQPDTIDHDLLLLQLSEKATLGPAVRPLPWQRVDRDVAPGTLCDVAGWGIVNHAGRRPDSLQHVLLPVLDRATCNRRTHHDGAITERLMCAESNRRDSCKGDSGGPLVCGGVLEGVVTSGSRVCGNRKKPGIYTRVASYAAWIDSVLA

Compound | IC50 [nM]
(41R,43S,45R)-42-(2-(3-acetyl-5-(2-methylpyrimidin-5-yl)-1H-indazol-1-yl)acetyl)-16-bromo-6-methyl-7-thia-42,6-diaza-1(2,3)-pyridina-4(3,5)-bicyclo[3.1.0]hexanacycloundecaphan-10-en-3-one 7,7-dioxide [Compound T-17] | < 1000

same assay, conditions: Human Factor D 80 nM, substrate Z-L-Lys-SBzl; Table 6; read-out: IC50

IC50 [nM] | Compound
< 1000 | CC(=O)c1nn2c3c(cc(-c4cnc(C)cn4)cc13)CC=CCCCC(=O)NC[C@@]13C[C@@H](C(=O)Nc4nc(C(F)(F)F)ccc4C)N(C(=O)C2)[C@@H]1C3 [Compound T-219, (41R,43S,45R)-13-acetyl-N-(3-methyl-6-(trifluoromethyl)pyridin-2-yl)-15-(5-methylpyrazin-2-yl)-3,7-dioxo-11H-42,6-diaza-1(1,7)-indazola-4(2,5)-bicyclo[3.1.0]hexanacyclotridecaphan-11-ene-43-carboxamide]
< 1000 | CC(=O)c1nn2c3c(cc(-c4cnc(C)nc4)cc13)CCCCCCC(=O)NC[C@@]13C[C@@H](C(=O)Nc4nc(Br)ccc4F)N(C(=O)C2)[C@@H]1C3 [Compound T-230, (41R,43S,45R)-13-acetyl-N-(6-bromo-3-fluoropyridin-2-yl)-15-(2-methylpyrimidin-5-yl)-3,7-dioxo-11H-42,6-diaza-1(1,7)-indazola-4(2,5)-bicyclo[3.1.0]hexanacyclotridecaphane-43-carboxamide]
< 1000 | CC(=O)c1nn2c3c(cc(-c4cnc(C)nc4)cc13)CCCCCCC(=O)NC[C@@]13C[C@@H](C(=O)Nc4cc(Br)ccc4C4CC4)N(C(=O)C2)[C@@H]1C3 [Compound T-212, (41R,43S,45R)-13-acetyl-N-(6-bromo-3-cyclopropylpyridin-2-yl)-15-(2-methylpyrimidin-5-yl)-3,7-dioxo-11H-42,6-diaza-1(1,7)-indazola-4(2,5)-bicyclo[3.1.0]hexanacyclotridecaphane-43-carboxamide]

same assay, conditions: Human Factor D 80 nM, substrate Z-L-Lys-SBzl; Table 6; read-out: IC50 (Stars)

Compound | IC50 [nM]
CC(=O)c1nn2c3c(nc(-c4cnc(C)nc4)cc13)CCCCCCC(=O)NC[C@@]13C[C@@H](C(=O)Nc4nc(Br)ccc4C)N(C(=O)C2)[C@@H]1C3 [Compound T-166, (41R,43S,45R)-13-acetyl-N-(6-bromo-3-methylpyridin-2-yl)-15-(2-methylpyrimidin-5-yl)-3,7-dioxo-11H-42,6-diaza-1(1,7)-pyrazolo[3,4-c]pyridina-4(2,5)-bicyclo[3.1.0]hexanacyclotridecaphane-43-carboxamide] | < 1000
CC(=O)c1nn2c3c(cc(-c4cnc(C)nc4)cc13)CCCCCC(C)(C)C(=O)N(C)C[C@@]13C[C@@H](C(=O)Nc4nc(C(F)(F)F)ccc4C)N(C(=O)C2)[C@@H]1C3 [Compound T-186, (41R,43S,45R)-13-acetyl-6,8,8-trimethyl-N-(3-methyl-6-(trifluoromethyl)pyridin-2-yl)-15-(2-methylpyrimidin-5-yl)-3,7-dioxo-11H-42,6-diaza-1(1,7)-indazola-4(2,5)-bicyclo[3.1.0]hexanacyclotridecaphane-43-carboxamide] | < 1000
Cc1ncc(-c2cc3c(C#N)nn4c3c(n2)CCCC=CCOC[C@@]23C[C@@H](C(=O)Nc5nc(C(F)(F)F)ccc5C)N(C(=O)C4)[C@@H]2C3)cn1 [Compound T-154, (41R,43S,45S)-13-cyano-N-(3-methyl-6-(trifluoromethyl)pyridin-2-yl)-15-(2-methylpyrimidin-5-yl)-3-oxo-11H-6-oxa-42-aza-1(1,7)-pyrazolo[3,4-c]pyridina-4(2,5)-bicyclo[3.1.0]hexanacyclododecaphan-8-ene-43-carboxamide] | < 1000

Results, then the compound that gave them:

IC50 [nM] | Compound
< 1000 | CC(=O)c1nn2c3c(nc(-c4cnc(C)nc4)cc13)CCCCCC(=O)NC[C@@]13C[C@@H](C(=O)Nc4nc(C(F)(F)F)ccc4C)N(C(=O)C2)[C@@H]1C3 [Compound T-124, (41R,43S,45R)-13-acetyl-N-(3-methyl-6-(trifluoromethyl)pyridin-2-yl)-15-(2-methylpyrimidin-5-yl)-3,7-dioxo-11H-42,6-diaza-1(1,7)-pyrazolo[3,4-c]pyridina-4(2,5)-bicyclo[3.1.0]hexanacyclododecaphane-43-carboxamide]
< 1000 | CC(=O)c1cn2c3c(cc(-c4cnc(C)nc4)cc13)CCCCCCC(=O)NC[C@@]13C[C@@H](C(=O)Nc4nc(C(F)(F)F)ccc4C)N(C(=O)C2)[C@@H]1C3 [Compound T-159, (41R,43S,45R)-13-acetyl-N-(3-methyl-6-(trifluoromethyl)pyridin-2-yl)-15-(2-methylpyrimidin-5-yl)-3,7-dioxo-11H-42,6-diaza-1(1,7)-indola-4(2,5)-bicyclo[3.1.0]hexanacyclotridecaphane-43-carboxamide]
